# Reference: the supplement of paper PMC5908809
# Experiments:
# [1] = test system: SNK-6 (IL-2 2.5 ng/mL); test: relative IC50 (inflection point of fitted viability curve, relative to fitted max inhibition); higher = less sensitive; settings: 72 h
# Protocol: (§1)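 Drug sensitivity and resistance testing: 5 concentrations over a 10,000-fold range, 72 h at 37 °C, viability by CellTiter-Glo normalised to DMSO and benzethonium chloride controls. IC50 is the inflection point of a logistic fit (min fixed at 0, max fitted), so it is relative to the fitted maximal inhibition. Kept only where fitted max inhibition is at least 50%.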
# [2] = test system: DERL-7 (IL-2 2.5 ng/mL); test: as above; settings: 72 h
# Protocol: as §1
# [3] = test system: NK-92 (IL-2 2.5 ng/mL); test: as above; settings: 72 h
# Protocol: as §1
# [4] = test system: IMC-1 (IL-2 20 ng/mL); test: as above; settings: 72 h
# Protocol: as §1
# [5] = test system: KHYG-1 (IL-2 2.5 ng/mL); test: as above; settings: 72 h
# Protocol: as §1
# [6] = test system: NK-YS (IL-2 2.5 ng/mL); test: as above; settings: 72 h
# Protocol: as §1
# [7] = test system: normal primary NK cells, pool 1 (3 donors), resting (IL-2 0 ng/mL); test: percent inhibition of viability; higher = more inhibition; settings: 72 h
# [8] = test system: KAI3 (IL-2 2.5 ng/mL); test: as above; settings: 72 h
# [9] = test system: SNK-6 (IL-2 2.5 ng/mL); test: as above; settings: 72 h
# [10] = test system: normal primary NK cells, pool 2 (3 donors) (IL-2 2.5 ng/mL); test: as above; settings: 72 h
# [11] = test system: DERL-7 (IL-2 2.5 ng/mL); test: as above; settings: 72 h
# [12] = test system: NK-92 (IL-2 2.5 ng/mL); test: as above; settings: 72 h
# [13] = test system: normal primary NK cells, pool 3 (3 donors) (IL-2 2.5 ng/mL); test: as above; settings: 72 h
# [14] = test system: IMC-1 (IL-2 20 ng/mL); test: as above; settings: 72 h
# [15] = test system: KHYG-1 (IL-2 2.5 ng/mL); test: as above; settings: 72 h
# [16] = test system: NK-YS (IL-2 2.5 ng/mL); test: as above; settings: 72 h
# [17] = test system: YT (IL-2 2.5 ng/mL); test: as above; settings: 72 h
# [18] = test system: normal primary NK cells, pool 1 (3 donors) (IL-2 2.5 ng/mL); test: as above; settings: 72 h
# [19] = test system: NKL (IL-2 2.5 ng/mL); test: as above; settings: 72 h
# [20] = test system: normal primary NK cells, pool 1 (3 donors), resting (IL-2 0 ng/mL); test: drug sensitivity score (DSS) (DSS units); higher = more sensitive; extreme values may be limits of the assay; settings: 72 h
# [21] = test system: KAI3 (IL-2 2.5 ng/mL); test: as above; settings: 72 h
# [22] = test system: SNK-6 (IL-2 2.5 ng/mL); test: as above; settings: 72 h
# [23] = test system: normal primary NK cells, pool 2 (3 donors) (IL-2 2.5 ng/mL); test: as above; settings: 72 h
# [24] = test system: DERL-7 (IL-2 2.5 ng/mL); test: as above; settings: 72 h
# [25] = test system: NK-92 (IL-2 2.5 ng/mL); test: as above; settings: 72 h
# [26] = test system: normal primary NK cells, pool 3 (3 donors) (IL-2 2.5 ng/mL); test: as above; settings: 72 h
# [27] = test system: IMC-1 (IL-2 20 ng/mL); test: as above; settings: 72 h
# [28] = test system: KHYG-1 (IL-2 2.5 ng/mL); test: as above; settings: 72 h
# [29] = test system: NK-YS (IL-2 2.5 ng/mL); test: as above; settings: 72 h
# [30] = test system: YT (IL-2 2.5 ng/mL); test: as above; settings: 72 h
# [31] = test system: normal primary NK cells, pool 1 (3 donors) (IL-2 2.5 ng/mL); test: as above; settings: 72 h
# [32] = test system: NKL (IL-2 2.5 ng/mL); test: as above; settings: 72 h
# [33] = test system: normal NK cells expanded with K562-aAPC; test: as above; settings: 72 h; IL-2 2.5 ng/mL
# Protocol: (§2)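 Drug sensitivity and resistance testing on K562-aAPC-expanded normal NK cells: 5 concentrations (10-fold steps over a 10,000-fold range), 72 h at 37 °C, viability by CellTiter-Glo normalised to DMSO and benzethonium chloride controls; DSS from the fitted curve.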
# [34] = test system: normal NK cells expanded with K562-aAPC; test: percent inhibition of viability; higher = more inhibition; settings: 72 h, IL-2 2.5 ng/mL
# Protocol: as §2
structure (smiles),measurement,setting,value
O=C(Nc1cccc(Cl)c1)Nc1ncc(CCNc2ncnc3ccsc23)s1 [SNS-314],relative IC50,[1],0.0105 µM
same,relative IC50,[2],28.1 nM
same,relative IC50,[3],61.3 nM
same,relative IC50,[4],201 nM
same,relative IC50,[5],12.4 nM
same,relative IC50,[6],37.9 nM
O=S(=O)(c1cccc2c(O)nccc12)N1CCCNCC1 [Hydroxyfasudil],relative IC50,[1],9.46 µM
COc1cc(Nc2ncc(F)c(Nc3ccc4c(n3)NC(=O)C(C)(C)O4)n2)cc(OC)c1OC [Tamatinib] (max concentration tested 10000 nM),percent inhibition of viability,[7]; 1 nM,-31.4%
same,percent inhibition of viability,[7]; 10 nM,-30.1%
same,percent inhibition of viability,[7]; 100 nM,-18.1%
same,percent inhibition of viability,[7]; 1000 nM,-11%
same,percent inhibition of viability,[7]; 10000 nM,-3.1%
same,percent inhibition of viability,[8]; 1 nM,4.14%
same,percent inhibition of viability,[8]; 10 nM,8.73%
same,percent inhibition of viability,[8]; 100 nM,12.3%
same,percent inhibition of viability,[8]; 1000 nM,52.5%
same,percent inhibition of viability,[8]; 10000 nM,82.4%
same,percent inhibition of viability,[9]; 1 nM,2.85%
same,percent inhibition of viability,[9]; 10 nM,9.06%
same,percent inhibition of viability,[9]; 100 nM,-0.26%
same,percent inhibition of viability,[9]; 1000 nM,-7.25%
same,percent inhibition of viability,[9]; 10000 nM,83%
same,percent inhibition of viability,[10]; 1 nM,-10%
same,percent inhibition of viability,[10]; 10 nM,-7.66%
same,percent inhibition of viability,[10]; 100 nM,-17.3%
same,percent inhibition of viability,[10]; 1000 nM,5.93%
same,percent inhibition of viability,[10]; 10000 nM,49.9%
same,percent inhibition of viability,[11]; 1 nM,-3.21%
same,percent inhibition of viability,[11]; 10 nM,-4.44%
same,percent inhibition of viability,[11]; 100 nM,-1.63%
same,percent inhibition of viability,[11]; 1000 nM,29.5%
same,percent inhibition of viability,[11]; 10000 nM,38.5%
same,percent inhibition of viability,[12]; 1 nM,-17.2%
same,percent inhibition of viability,[12]; 10 nM,-0.02%
same,percent inhibition of viability,[12]; 100 nM,-13.7%
same,percent inhibition of viability,[12]; 1000 nM,11%
same,percent inhibition of viability,[12]; 10000 nM,90.4%
same,percent inhibition of viability,[13]; 1 nM,-10.4%
same,percent inhibition of viability,[13]; 10 nM,-5.15%
same,percent inhibition of viability,[13]; 100 nM,-13.3%
same,percent inhibition of viability,[13]; 1000 nM,2.62%
same,percent inhibition of viability,[13]; 10000 nM,54.5%
same,percent inhibition of viability,[14]; 1 nM,-4.81%
same,percent inhibition of viability,[14]; 10 nM,-0.95%
same,percent inhibition of viability,[14]; 100 nM,-11%
same,percent inhibition of viability,[14]; 1000 nM,-15.5%
same,percent inhibition of viability,[14]; 10000 nM,56.1%
same,percent inhibition of viability,[15]; 1 nM,1.54%
same,percent inhibition of viability,[15]; 10 nM,-0.18%
same,percent inhibition of viability,[15]; 100 nM,6.88%
same,percent inhibition of viability,[15]; 1000 nM,36%
same,percent inhibition of viability,[15]; 10000 nM,99.6%
same,percent inhibition of viability,[16]; 1 nM,-3.68%
same,percent inhibition of viability,[16]; 10 nM,-3.13%
same,percent inhibition of viability,[16]; 100 nM,-0.99%
same,percent inhibition of viability,[16]; 1000 nM,12.5%
same,percent inhibition of viability,[16]; 10000 nM,56.2%
same,percent inhibition of viability,[17]; 1 nM,2.46%
same,percent inhibition of viability,[17]; 10 nM,0.67%
same,percent inhibition of viability,[17]; 100 nM,2.31%
same,percent inhibition of viability,[17]; 1000 nM,5.93%
same,percent inhibition of viability,[17]; 10000 nM,82.7%
same,percent inhibition of viability,[18]; 1 nM,-10.3%
same,percent inhibition of viability,[18]; 10 nM,-6.76%
same,percent inhibition of viability,[18]; 100 nM,7.45%
same,percent inhibition of viability,[18]; 1000 nM,9.38%
same,percent inhibition of viability,[18]; 10000 nM,25.4%
same,percent inhibition of viability,[19]; 1 nM,-1.49%
same,percent inhibition of viability,[19]; 10 nM,-0.26%
same,percent inhibition of viability,[19]; 100 nM,2.39%
same,percent inhibition of viability,[19]; 1000 nM,34.2%
same,percent inhibition of viability,[19]; 10000 nM,68.3%
same,drug sensitivity score,[20],0
same,drug sensitivity score,[21],11.7
same,drug sensitivity score,[22],4.09
same,drug sensitivity score,[23],3.61
same,drug sensitivity score,[24],5.34
same,drug sensitivity score,[25],6.83
same,drug sensitivity score,[26],3.27
same,drug sensitivity score,[27],2.27
same,drug sensitivity score,[28],9.92
same,drug sensitivity score,[29],5.03
same,drug sensitivity score,[30],5.49
same,drug sensitivity score,[31],1.62
same,drug sensitivity score,[32],7.84
same,drug sensitivity score,[33],5
same,percent inhibition of viability,[34]; 1 nM,0.12%
same,percent inhibition of viability,[34]; 10 nM,1.7%
same,percent inhibition of viability,[34]; 100 nM,1.14%
same,percent inhibition of viability,[34]; 1000 nM,27.4%
same,percent inhibition of viability,[34]; 10000 nM,36.2%
